Source: PMC12461739, “Multi-targeted azacoumarin–cyanocinnamate hybrids induce G2/M arrest and apoptosis via tubulin, and COX-2/VEGFR modulation: insights from in vitro mechanistic basis and in vivo validation” (RSC Medicinal Chemistry, 2025)
pIC50: −log10 of the molar value. Where “and” joins values, the source holds several entries; their conditions need not be identical. Equal entries are not always repeated.

Tests used:
[1] = FRAP (ferric reducing antioxidant power) assay; conditions: 37 °C, 60 min
Description: The resulting Fe^2+ forms a colored complex with the FRAP chromogenic probe, which can be quantitatively measured. The reaction mixture was prepared by combining FRAP assay buffer, FRAP probe, and FeCl3 solution as per the manufacturer's protocol. […] Absorbance was measured at 594 nm using a microplate reader after incubation at 37 °C for 60 minutes. Antioxidant activity was determined by comparing the absorbance of the samples to a standard curve generated using known concentrations of the ferrous standard provided in the kit.

MCF-7 cells = experiment: Cell cycle analysis (PI flow cytometry); assay type: cell-based, human; conditions: MCF-7, 7.653 μM (IC50), 24 h
Description: Cell cycle progression was examined using a propidium iodide (PI)-based staining protocol, adapted from standard manufacturer instructions and previously described methods. MCF-7 cells were seeded at a density of 2 × 10^5 cells per well in DMEM and incubated overnight under standard conditions (37 °C, 5% CO2). […] A DMSO-treated group served as the vehicle control. After treatment, cells were collected, washed twice with cold phosphate-buffered saline (PBS), and centrifuged at 2000 rpm for 5 minutes. The pellets were fixed in pre-chilled 70% ethanol and stored at −20 °C for 2 hours. After fixation, cells were washed again with PBS, centrifuged, and resuspended in PI/RNase staining solution. Samples were incubated for 30 minutes at 37 °C in the dark to allow for RNA degradation and proper DNA staining. Flow cytometric analysis was conducted using a BD FACSCalibur™ system (BD Biosciences, USA). PI fluorescence was detected using a 488 nm excitation laser and collected through the FL2 channel (585 nm bandpass filter). Cell cycle phase distribution (G0/G1, S, and G2/M) was analyzed using dedicated software.

[2] = tested on: Ehrlich ascites carcinoma (EAC) cells; experiment: EAC model: viable EAC cell count and ascitic tumor volume; conditions: for total viable EAC cell count: 10 days
Description: To evaluate tumor burden in the experimental groups, ascitic fluid was collected from the peritoneal cavity using a sterile, graduated syringe. The volume of ascitic fluid was recorded for each animal. The collected fluid was then diluted with heparinized saline for viable cell counting. Cell viability and density were determined using the trypan blue exclusion method. A 0.4% (w/v) trypan blue solution was prepared by dissolving 0.4 g of dye in 100 mL of sterile distilled water and filtering it through a 0.22 μm membrane filter. Prior to counting, 10 μL of the ascitic cell suspension was mixed with an equal volume of trypan blue and incubated at room temperature for 2 minutes. Cells were loaded onto a hemocytometer (Thoma type, Germany) and examined under a light microscope at 40× magnification. Non-viable cells stained blue, whereas viable cells remained unstained. All measurements were performed in triplicate, and the results are expressed as mean ± SD.[93]
On day 1, all groups were injected i.p. with 2.5 × 10^6 viable EAC cells in 200 μL of sterile saline. Group 1 (EAC control) received EAC cells only and no further treatment. […] The compound was administered i.p. every other day (i.e., on days 2, 4, 6, 8, and 10), for a total of five doses over a 10 day treatment period. At the end of the experiment (day 11), ascitic fluid was collected from the peritoneal cavity of each animal. The number and viability of EAC cells were assessed using the trypan blue exclusion assay. Each experiment was performed in triplicate and independently replicated on at least three separate occasions. The results were presented as mean ± SD. Statistical comparisons between groups were conducted using GraphPad Prism, with p < 0.05 considered significant.[95]
On day 11, following the final treatment, ascitic fluid was collected from the peritoneal cavity using heparinized syringes for EAC cell viability and count analysis.

[3] = Hepatic oxidative stress markers (GSH, CAT, SOD, MDA)
Description: All animals were maintained under conventional laboratory conditions, including a controlled temperature of 22 ± 2 °C and a 12 hour light/dark photoperiod, with continuous access to standard pellet chow and water. On day 11, following the final treatment, ascitic fluid was collected from the peritoneal cavity using heparinized syringes for EAC cell viability and count analysis. Blood samples were collected under light ether anesthesia via the retro-orbital venous plexus and centrifuged at 3000 rpm for 10 minutes. The resulting serum was separated and stored at −20 °C for biochemical analysis. Additionally, liver and kidney tissues were excised from each animal for further evaluation. Each organ was divided into two parts: one portion was rinsed with ice-cold phosphate-buffered saline (PBS, pH 7.4) and stored at −20 °C for preparation of tissue homogenates used in biochemical assays. The second portion was fixed in 10% neutral buffered formalin for histopathological examination to assess tissue morphology and damage.[96,97]
Liver tissues were homogenized in an appropriate lysis buffer and centrifuged to obtain the supernatant. Samples were loaded into ELISA plates pre-coated with catalase-specific antibodies and incubated at 37 °C. After washing steps, a biotinylated detection antibody and horseradish peroxidase (HRP)-conjugated secondary antibody were sequentially added. The reaction was developed using a tetramethylbenzidine (TMB) substrate and stopped with sulfuric acid. Absorbance was measured at 450 nm using a microplate reader, and results were expressed as units per gram of tissue (U g^−1 tissue). All samples were run in triplicate, and data were reported as mean ± SD.
The assay employed a double-antibody sandwich ELISA technique, where wells are pre-coated with MDA-specific monoclonal antibodies. Liver tissue homogenate samples were added to the wells and incubated to allow specific antigen–antibody binding. After washing, a biotin-labeled polyclonal detection antibody was added, followed by an avidin–HRP conjugate. The enzymatic reaction was developed using a TMB substrate, yielding a colorimetric change proportional to the MDA concentration. The reaction was stopped with acid, and absorbance was measured at 450 nm using a microplate reader. Results were expressed as nanomole per gram of tissue (nmol g^−1 tissue). All measurements were performed in triplicate, and results are presented as mean ± SD.
The assay employs a sandwich ELISA technique in which GSH in the samples binds to monoclonal antibodies pre-coated on microplate wells. Following this, an HRP-conjugated detection antibody was added, and the plate was incubated at 37 °C for 1 hour. After several washing steps to remove unbound reagents, a TMB substrate solution was added, allowing the enzymatic colorimetric reaction to develop. The reaction was stopped with an acidic solution, and absorbance was measured at 450 nm using a microplate reader. The resulting color intensity was directly proportional to the GSH concentration in the sample, and results were expressed as picogram per gram of tissue (pg g^−1 tissue). All samples were assayed in triplicate, and results are reported as mean ± SD.
The assay employed a sandwich ELISA format, in which SOD present in the tissue homogenates binds to a specific monoclonal antibody pre-coated on microplate wells. After sample incubation at 37 °C for 60 minutes, an HRP-conjugated secondary antibody was added. Following thorough washing, the enzymatic reaction was initiated with a TMB substrate and stopped with an acidic solution, resulting in a measurable color change. Absorbance was recorded at 450 nm using a microplate reader, and results were expressed as units per gram of tissue (U g^−1 tissue). All samples were run in triplicate, and data were reported as mean ± SD.

TNF-α = experiment: Serum TNF-α ELISA
Description: (§1) All animals were maintained under conventional laboratory conditions, including a controlled temperature of 22 ± 2 °C and a 12 hour light/dark photoperiod, with continuous access to standard pellet chow and water. On day 11, following the final treatment, ascitic fluid was collected from the peritoneal cavity using heparinized syringes for EAC cell viability and count analysis. Blood samples were collected under light ether anesthesia via the retro-orbital venous plexus and centrifuged at 3000 rpm for 10 minutes. The resulting serum was separated and stored at −20 °C for biochemical analysis.
Briefly, 96-well microplates pre-coated with a TNF-α-specific capture antibody were loaded with standards and serum samples, followed by incubation to allow antigen binding. After washing, a biotin-labeled detection antibody was added, followed by an avidin–HRP conjugate to amplify the signal. The enzymatic reaction was developed using a TMB substrate and stopped with an acidic solution. Absorbance was measured at 450 nm using the ELISA microplate reader. TNF-α concentrations were calculated by plotting sample absorbance values against a standard curve and expressed in pg mL^−1. All measurements were performed in triplicate, and data were presented as mean ± SD.

COX-2 = molecular target: T1, COX-2 (Homo sapiens, UniProt P35354); experiment: COX-2 inhibitor screening (fluorometric); assay type: biochemical
T1 construct: purchased BioVision K547-100
T1 sequence (P35354 18-604): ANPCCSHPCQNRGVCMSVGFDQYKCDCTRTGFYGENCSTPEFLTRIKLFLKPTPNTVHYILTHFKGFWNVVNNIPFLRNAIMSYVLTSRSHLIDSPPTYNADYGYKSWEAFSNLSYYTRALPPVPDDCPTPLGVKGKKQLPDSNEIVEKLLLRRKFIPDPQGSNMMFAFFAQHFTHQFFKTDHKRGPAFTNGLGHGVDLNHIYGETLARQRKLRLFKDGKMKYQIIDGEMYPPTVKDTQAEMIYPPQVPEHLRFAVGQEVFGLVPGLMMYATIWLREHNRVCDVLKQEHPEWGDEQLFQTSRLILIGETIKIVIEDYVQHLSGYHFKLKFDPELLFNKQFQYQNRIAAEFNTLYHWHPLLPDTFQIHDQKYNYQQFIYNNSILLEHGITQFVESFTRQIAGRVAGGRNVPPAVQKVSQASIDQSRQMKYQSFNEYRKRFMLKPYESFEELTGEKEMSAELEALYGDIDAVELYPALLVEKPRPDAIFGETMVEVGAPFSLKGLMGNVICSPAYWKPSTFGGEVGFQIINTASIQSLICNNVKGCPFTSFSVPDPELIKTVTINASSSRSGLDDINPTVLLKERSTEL
Description: COX-1 and COX-2 enzymes were reconstituted in sterile water (110 μL) and kept on ice until use. Arachidonic acid was activated by mixing 5 μL with 5 μL of NaOH, followed by a 10-fold dilution with water and vortexing. A reaction mixture (80 μL per well) was prepared by combining 76 μL of assay buffer, 1 μL of COX probe, 2 μL of 200-fold diluted COX cofactor, and 1 μL of COX-1 or COX-2 enzyme. This mix was added to each well, followed by 10 μL of the prepared arachidonic acid/NaOH solution to initiate the reaction. Fluorescence was recorded at 25 °C using a microplate reader. The percent inhibition was determined by comparing the fluorescence increase in treated wells relative to the enzyme control. IC50 values were calculated from the concentration–response curves using GraphPad Prism.

Bcl-2 = experiment: qRT-PCR gene expression, Bcl-2; assay type: cell-based, human; conditions: MCF-7, 7.653 μM, 24 h
Description: Untreated cells served as negative controls. RNA concentration and purity were verified spectrophotometrically prior to cDNA synthesis. Complementary DNA (cDNA) was synthesized from purified RNA using the RT^2 First Strand Kit (Qiagen, Valencia, CA, USA) following the supplied protocol. Quantitative real-time PCR (qRT-PCR) was performed on a Corbett Rotor-Gene 6000 system (Qiagen, USA) using the RT^2 SYBR® Green ROX™ FAST Master Mix (Qiagen). Each 25 μL reaction contained 12.5 μL of master mix, 1 μL of gene-specific primers (RT^2 qPCR Primer Assays, Qiagen), 1 μL of cDNA template, and 10.5 μL of RNase-free water. Gene-specific primers were selected using the PrimerBank database for BAX, BCL2, and TP53, along with GAPDH as the endogenous control (Table S3). Thermal cycling conditions were set as follows: initial enzyme activation at 95 °C for 10 minutes, followed by 40 cycles of denaturation at 95 °C for 15 seconds, and annealing at 60 °C for 30 seconds. Amplification specificity was confirmed by melting curve analysis. Gene expression levels were normalized to GAPDH mRNA as the internal reference, and relative quantification was performed using the ΔΔCt method. […] Statistical analysis was performed using GraphPad Prism software, with p < 0.05 considered statistically significant.[79]

VEGFR-II = experiment: Serum VEGFR-II ELISA
Description: as §1
Serum VEGFR-2 levels were quantified using a rat VEGFR-2 ELISA kit (Cusabio®, China; Catalog No. CSB-E07348r), based on a quantitative sandwich enzyme immunoassay format. Samples were added to 96-well plates pre-coated with a monoclonal antibody specific for VEGFR-2 and incubated to enable antigen binding. After washing to remove unbound material, a biotin-conjugated detection antibody was added, followed by an avidin–HRP complex. The enzymatic reaction was developed using TMB substrate and stopped with an acidic solution. Absorbance was measured at 450 nm using a microplate reader. The VEGFR-2 concentrations in the samples were calculated using a standard curve fitted with a four-parameter logistic (4-PL) regression model and expressed in nanograms per milliliter (ng mL^−1).

## CCOC(=O)/C(C#N)=C/c1ccc(Oc2c(C)c3cc(Br)c(O)c(Br)c3[nH]c2=O)cc1 [Compound 7, ethyl (E)-2-cyano-3-(4-((6,8-dibromo-7-hydroxy-4-methyl-2-oxo-1,2-dihydroquinolin-3-yl)oxy)phenyl)acrylate]
[1]
  pIC50: 3.84
MCF-7 cells; control 7.57%
  cells in G2/M phase: 36.21%
MCF-7 cells; control 21.08%
  S-phase cells: 15.75%
[2]; 2.5 mg kg^−1, vs EAC control
  reduction in viable EAC cells: 53.27%
[2]; 2.5 mg kg^−1 i.p. every two days, EAC control 199.33 ± 4.15
  total viable EAC cell count: 93.15 ± 7.19 × 10^6 cells
[2]; 5 mg kg^−1, vs EAC control
  reduction in viable EAC cells: 65.41%
[2]; 5 mg kg^−1 i.p. every two days
  total viable EAC cell count: 68.95 ± 2.00 × 10^6 cells
[2]; 7.5 mg kg^−1, vs EAC control
  reduction in viable EAC cells: 72.36%
[2]; 7.5 mg kg^−1 i.p. every two days
  total viable EAC cell count: 55.10 ± 2.15 × 10^6 cells
[2]; 10 mg kg^−1, vs EAC control
  reduction in viable EAC cells: 85.92%
[2]; 10 mg kg^−1, vs untreated EAC group
  reduction of ascitic tumor volume: 45.25%
[2]; 10 mg kg^−1, untreated EAC group 5.68 ± 0.15 mL
  average ascitic tumor volume: 3.11 ± 0.45 mL
[2]; 10 mg kg^−1 i.p. every two days
  total viable EAC cell count: 28.06 ± 1.69 × 10^6 cells
[2]; 15 mg kg^−1, vs EAC control
  reduction in viable EAC cells: 85.96%
[2]; 15 mg kg^−1 i.p. every two days
  total viable EAC cell count: 27.98 ± 0.39 × 10^6 cells
[3]; EAC + compound 7 (10 mg kg^−1 i.p.), EAC control 12.50 ± 0.55
  hepatic GSH: 34.76 ± 1.71 pg g^−1 tissue
[3]; EAC + compound 7, EAC control 9.85 ± 0.53
  hepatic SOD: 27.04 ± 0.70 U g^−1 tissue
[3]; EAC + compound 7, EAC control 11.71 ±1.42
  hepatic CAT: 23.12 ± 1.09 U g^−1 tissue
[3]; EAC + compound 7, EAC control 53.57 ± 9.6
  hepatic MDA: 17.04 ± 0.64 nmol g^−1 tissue
[3]; compound 7 control group, no EAC
  hepatic MDA: 10.77 ± 0.70 nmol g^−1 tissue
[3]; compound 7 control group, no EAC, untreated 61.4 ± 2.99
  hepatic GSH: 72.73 ± 1.37 pg g^−1 tissue
[3]; compound 7 control group, no EAC, untreated 65.23 ± 1.97
  hepatic CAT: 60.88 ± 2.66 U g^−1 tissue
[3]; compound 7 control group, no EAC, untreated 77.56 ± 4.02
  hepatic SOD: 77.05 ± 1.84 U g^−1 tissue
TNF-α; EAC + compound 7 (10 mg kg^−1 i.p.), EAC control 156.80 ± 4.71
  serum TNF-α: 56.42 ± 2.01 pg/mL
TNF-α; compound 7-only control group, no EAC
  serum TNF-α: 29.37 ± 1.33 pg/mL
COX-2
  selectivity index (SI), COX-1/COX-2: 5.93
COX-2; read-out: IC50 toward COX-2
  pIC50: 5.90 and 5.89
Bcl-2
  Bcl-2 expression relative to untreated control: 0.312 fold
VEGFR-II; EAC + compound 7 (10 mg kg^−1 i.p.), EAC control 85.61 ± 2.47
  serum VEGFR-II: 30.66 ± 1.31 ng/mL
VEGFR-II; compound 7-only control group, no EAC, untreated 18.23 ± 0.81
  serum VEGFR-II: 14.03 ± 0.45 ng/mL
